# Source: US12291536B2, “Crystal form of Wee1 inhibitor compound and use thereof” (Wuxi Biocity Biopharmaceutics Co., Ltd., priority 2019, dated 2025)
# Legend:
# [1] = Solid stability test of Crystal Form F under high temperature, high humidity, illumination and accelerated conditions; assay type: physicochemical
# Protocol: According to influencing factors and accelerated test conditions, about 5 mg of Crystal Form F of the Compound of Formula (I) was weighed precisely and placed in a dry and clean glass bottle, in duplicate, and spread into a thin layer, as the formal test sample, placed under the influencing factors test conditions (60° C., 92.5% RH (relative humidity)) and accelerated conditions (40° C./75% RH and 60° C./75% RH), with the samples fully exposed. The test system was covered with an aluminum foil paper with small holes. In addition, a small amount of samples were taken and placed in a 40 mL glass sample bottle under the same conditions to determine the crystal state. Sampling and analysis were performed on day 5 days, 10 days, and one month. The samples placed under Illumination (visible light 1200000 Lux, UV 200 W) conditions were fully exposed at room temperature.
# [2] = tested on: human colon cancer LoVo cell subcutaneous xenograft tumor; assay: In vivo pharmacodynamic study, human colon cancer LoVo cell subcutaneous xenograft tumor model; set-up: species or system BALB/c nude mice; conditions: gavage 40 mg/kg twice a day, 16 days
# Protocol: Experimental method: The selected experimental animals (provided by Shanghai SIPPR-BK Experimental Animal Co., Ltd.) were BALB/c nude mice, 6-8 weeks, weighing 18-22 g.
# Human colon cancer LoVo cells were cultured in monolayer in vitro, and culture conditions were Ham's F-12 medium with 10% fetal bovine serum, 100 U/mL penicillin, 100 μg/mL streptomycin and 2 mM glutamine, 37° C., 5% CO2. Trypsin-EDTA was used for routine digestion and passage, twice a week. When the cell saturation is 80%-90%, the cells were collected, counted, and inoculated. 0.1 mL (10×10^6 cells) of LoVo cells were subcutaneously inoculated on the right back of each nude mouse, and group administration was initiated when the average tumor volume reached 213 mm^3. Dosage for gavage administration was 40 mg/kg, twice a day. The experimental index was to investigate whether the tumor growth was inhibited, alleviated or cured. The diameters of the tumors were measured with a vernier caliper twice a week. The calculation formula for the tumor volume was V=0.5a×b^2, where a and b represent the long diameter and short diameter of the tumor, respectively.
# The anti-tumor efficacy of the compound was evaluated by TGI (%) or the relative tumor growth rate T/C (%). TGI (%) reflects the tumor growth inhibition rate. […]
# [3] = tested on: mouse colon cancer CT26 cell allograft tumor; assay: In vivo anti-tumor efficacy, CT26 mouse colon cancer cell transplanted tumor model; set-up: species or system BALB/c nude mice; conditions: gavage 30 mg/kg twice a day, 18 days
# Protocol: Experimental procedure: The selected experimental animals were BALB/c nude mice, 7 weeks, weighing 16-20 g, female.
# Cells: Mouse colon cancer CT26 cells (Cell Bank of Type Culture Collection Committee of Chinese Academy of Sciences) were cultured in monolayer in vitro, and culture condition was RPMI-1640 medium containing 10% fetal bovine serum, in 37° C., 5% CO2 incubator. Trypsin-EDTA was used for routine digestion and passage. When the cells were in the exponential growth phase and the saturation was 80%-90%, the cells were collected, counted, and inoculated. 0.1 mL of DPBS (containing 3×10^5 CT26 cells) was subcutaneously inoculated on the right back of each mouse. When the average tumor volume reached 50-70 mm^3, randomized administration was carried out according to the tumor volume. Gavage dosage: 30 mg/kg, twice a day.
# (§1) The experimental index was to investigate whether the tumor growth was inhibited, alleviated or cured. The diameters of the tumors were measured with a vernier caliper twice a week. The anti-tumor efficacy of the compound was evaluated by TGI (%) or the relative tumor growth rate T/C (%). TGI (%) reflects the tumor growth inhibition rate. […]
# [4] = tested on: human pancreatic cancer BxPC-3 cell xenograft tumor; assay: In vivo pharmacodynamic study, human pancreatic cancer BxPC-3 subcutaneously transplanted tumor model; set-up: species or system BALB/c nude mice; conditions: BxPC-3 xenograft, gavage 25 mg/Kg once a day, 27 days
# Protocol: Experimental procedure: The selected experimental animals were BALB/c nude mice, 6-8 weeks, weighing 18-22 g.
# The 10th generation of BxPC-3 cells were cultured in monolayer in vitro, and the culture conditions were RPMI 1640 medium (Manufacturer: Gibco, Catalog: 22400-089) with 10% fetal bovine serum, 100 U/mL penicillin and 100 μg/mL Streptomycin, 37° C., 5% CO2, 4 passages. The passage method was twice a week with trypsin-EDTA for routine digestion and passage. When the cell saturation reached 80%-90%, the cells were digested with trypsin-EDTA, counted, and resuspended in PBS at a density of 5×10^7 cells/mL. Each animal was inoculated with 0.1 mL (5×10^6 cells) of BxPC-3 cells on the right back. When the average tumor volume reached 153 mm^3, they were randomly grouped according to the tumor volume and administration was started. Gavage dosage: 25 mg/Kg, once a day.
# as §1
# [5] = Pharmacokinetic evaluation after single intravenous and single oral administration; assay type: in vivo, female Balb/c Nude mice; conditions: female, Balb/c Nude; for AUC(0-t): read-out: Area under the drug-time curve AUC0-last; for half-life: read-out: Half-life T1/2 (converted)
# Protocol: Twelve mice (provided by Lingchang) were randomly divided into two groups, 6 females in each group, and samples were collected by cross-blood sampling.
# In the intravenous group, plasma samples were collected at 9 time points: 5 min, 15 min, 30 min, 1 h, 2 h, 4 h, 6 h, 8 h, and 24 h after the administration. In the oral group, plasma samples were collected at 8 time points: 15 min, 30 min, 1 h, 2 h, 4 h, 6 h, 8 h and 24 h after the administration.
# Wee1 = target: T1, Wee1 (Homo sapiens, UniProt P30291); assay: In vitro enzymatic inhibitory activity (Eurofins, [γ-33P]-ATP filter assay); assay type: biochemical; conditions: 10 μM ATP, 40 min, room temperature
# T1 construct: purchased Eurofins
# Protocol: The experimental test was carried out in Eurofins, and the experimental results were provided by the company.
# Into the test system were added 20 mM Tris-HCl, pH 8.5, 0.2 mM EDTA, 500 μM polypeptide substrate ([sequence]), 10 mM magnesium acetate and 10 μM [γ-^33P]-ATP (intensity of about 500 cpm/pmol). After addition of Mg^2+ and ATP mixture, the reaction was initiated and incubated at room temperature for 40 min. 3% phosphate buffer was added to stop the reaction.
# 10 μL of reaction solution was taken and filtered on a continuous filter P30, and washed three times with 75 mM phosphate buffer, once with methanol, each washing for 5 min. After drying, the values were read by scintillation counting method.
# P-gp (human MDR1) = assay: In vitro permeability test in MDR1-MDCK II cells; assay type: in vitro ADME, canine; conditions: dog
# From the text: (§2) MDR1-MDCK II cell authorized by the Piet Borst Laboratory of the Netherlands Cancer Institute was used in the study, the cell is a Madin-Darby canine kidney cell transfected with the human multi-drug resistance gene (MDR1), which can stably express efflux transporter P glycoprotein (P-gp) and therefore is suitable for screening P-gp substrate or inhibitor, and for predicting the permeability of compounds with high efflux barriers such as duodenum, blood-brain barrier, […], and kidney unit. MDR1-MDCK II cells of from passage 5-35 were used for permeability study.
# (§3) MDR1-MDCK II cells were cultured with α-MEM medium (α-Minimum Essential Media) under culture condition of 37±1° C., 5% CO2 and saturated relative humidity. Then, the cells were seeded in a BD Transwell-96 well plate at a seeding density of 2.3×10^5 cells/cm^2, and then the cells were cultured in a carbon dioxide incubator for 4-7 days for transport experiment. The preparation method of its α-MEM medium was as follows:
# (§4) The liquid nutrient base was prepared with powder (α-MEM powder from Gibco, Cat #:11900) dissolved in pure water, and was added with L- (L-glutamine) and NaHCO3. Then 10% FBS (fetal bovine serum), 1% PS (double antibody) and 1% NEAA were added upon use to make a complete medium. […]
# (§5) After all samples were vortexed and centrifuged at 3220 g for 10 min, an appropriate volume of supernatant was transferred to the sample analysis plate. After the plate was sealed, the sample should be stored at 2-8° C. if it was not analyzed immediately, using the LC-MS/MS method for analysis.
# (§6) After the transport experiment was over, the integrity of the MDR1-MDCK II cells was tested by the Lucifer Yellow Rejection Assay. After 30 min of incubation with the Lucifer Yellow solution, the Lucifer Yellow sample was collected, and the 2e plate reader set at 425/528 nm (Excitation/Emission) was used to detect the relative fluorescence intensity (RFU) of fluorescent yellow in the sample.
# P-gp (MDR1) = assay: In vitro permeability test in MDR1-MDCK II cells; assay type: in vitro ADME, canine; conditions: dog
# From the text: as §2, §3, §4, §5, §6
# [6] = Illumination (visible light 1200000 Lux, UV 200 W), room temperature
# [7] = po, Administration by gavage, 10 mg/kg, mouse plasma
# [8] = Intravenous administration, 1 mg/kg, mouse plasma
# T1 sequence (P30291 whole entry): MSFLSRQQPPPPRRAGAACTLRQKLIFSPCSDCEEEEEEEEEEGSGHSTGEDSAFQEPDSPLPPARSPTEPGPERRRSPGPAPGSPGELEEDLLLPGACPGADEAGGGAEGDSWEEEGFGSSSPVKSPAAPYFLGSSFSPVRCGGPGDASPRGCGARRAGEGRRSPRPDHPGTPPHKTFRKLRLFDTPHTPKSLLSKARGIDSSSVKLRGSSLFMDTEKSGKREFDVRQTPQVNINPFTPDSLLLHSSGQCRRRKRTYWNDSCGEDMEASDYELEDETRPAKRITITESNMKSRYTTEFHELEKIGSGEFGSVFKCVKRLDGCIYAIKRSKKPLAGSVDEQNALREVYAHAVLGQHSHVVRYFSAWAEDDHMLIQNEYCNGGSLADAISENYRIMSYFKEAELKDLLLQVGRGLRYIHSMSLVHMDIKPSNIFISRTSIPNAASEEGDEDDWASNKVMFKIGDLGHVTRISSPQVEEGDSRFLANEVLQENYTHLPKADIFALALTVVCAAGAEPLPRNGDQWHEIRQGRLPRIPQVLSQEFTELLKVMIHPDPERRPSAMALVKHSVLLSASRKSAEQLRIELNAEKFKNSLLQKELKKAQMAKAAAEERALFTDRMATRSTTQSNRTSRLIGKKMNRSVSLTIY
smiles,measurement,setting,value
CN1CCN(c2ccc(Nc3ncc4c(=O)n5n(c4n3)-c3cccc(n3)[C@](C)(O)CC/C=C\C5)cc2)CC1 [Crystal Form F],Content %,[1]; 0 day,99.38%
same,Total impurity %,[1]; 0 day,0.63%
same,Content %,"[1]; 40° C.-75% humidity, 1 month",97.94%
same,Total impurity %,"[1]; 40° C.-75% humidity, 1 month",0.62%
same,Content %,"[1]; 40° C.-75% humidity, 10 day",98.01%
same,Total impurity %,"[1]; 40° C.-75% humidity, 10 day",0.63%
same,Content %,"[1]; 60° C., 5 days",99.39%
same,Total impurity %,"[1]; 60° C., 5 days",0.74%
same,Content %,"[1]; 60° C., 10 days",99.98%
same,Total impurity %,"[1]; 60° C., 10 days",0.84%
same,Content %,"[1]; 60° C.-75% humidity, 1 month",99.46%
same,Total impurity %,"[1]; 60° C.-75% humidity, 1 month",0.75%
same,Content %,"[1]; 60° C.-75% humidity, 10 day",100.43%
same,Total impurity %,"[1]; 60° C.-75% humidity, 10 day",0.69%
same,Content %,"[1]; 92.5% humidity, 5 days",98.72%
same,Total impurity %,"[1]; 92.5% humidity, 5 days",0.61%
same,Content %,"[1]; 92.5% humidity, 10 days",98.38%
same,Total impurity %,"[1]; 92.5% humidity, 10 days",0.64%
same,Content %,[1]; [6],98.58%
same,Total impurity %,[1]; [6],0.67%
same,Content %,[1]; Protection from light,97.77%
same,Total impurity %,[1]; Protection from light,0.61%
same,Crystal form change (physical stability),[1]; one-month solid influencing factor and accelerated test,did not change
"C=CCn1c(=O)c2cnc(Nc3ccc(N4CCN(C)CC4)cc3)nc2n1-c1cccc(C(C)(C)O)n1 [AZD1775, reference compound]",TGI (%),[2],26.73%
same,TGI (%),[3],66.43%
same,TGI (%),[4],24.3%
same,AUC(0-t),[5]; [7],1.2 µM·h
same,half-life,[5]; [8],15.1 min
"CN1CCN(c2ccc(Nc3ncc4c(=O)n5n(c4n3)-c3cccc(n3)[C@](C)(O)CC/C=C\C5)cc2)CC1 (single isomer, unassigned) [Compound of Formula (I)]",TGI (%),[2],84.74%
same,TGI (%),[3],93.38%
same,TGI (%),[4],73.3%
same,bioavailability,"[5]; mouse, plasma, po, Administration by gavage, 10 mg/kg, read-out: Bioavailability F (%)",62.4%
same,AUC(0-t),[5]; [7],6.04 µM·h
same,clearance,"[5]; Intravenous administration, 1 mg/kg, mouse plasma, read-out: Clearance rate",33.5 mL/min/kg
same,half-life,[5]; [8],101 min
same,IC50,Wee1,29 nM
same,"efflux ratio at 150 min, 2 μM",P-gp (human MDR1),3.82
same,"Papp A→B at 150 min, 2 μM",P-gp (MDR1); read-out: Penetration rate A to B,4.55 ×10⁻⁶ cm/s
same,"Papp B→A at 150 min, 2 μM",P-gp (MDR1); read-out: Penetration rate B to A,17.4 ×10⁻⁶ cm/s
